Experimental data reported in patent US20030144269A1, “Reducing pulse pressures and vascular stiffness in hypertensive patients by administering a vasopeptidase inhibitor” (priority 2001, published 2003).

What was measured:
[1] = system: patients with systolic or mixed systolic-diastolic hypertension; test: Double-blind 12-week comparison of omapatrilat and enalapril: trough pulsatile hemodynamics (cuff pressure, arterial tonometry, Doppler flow); format: in vivo, human; conditions: for Brachial pressures: Systolic pressure: trough (24 h after last dose), titrated to 80 mg omapatrilat or 40 mg enalapril; for Brachial pressures: Systolic pressure / PfPb Temporal overlap / Augmentation index / Brachial pressures: Diastolic pressure / Brachial pressures: Mean pressure / Brachial pressures: Pulse pressure / Carotid-femoral PWV / Carotid-radial PWV / Central hemodynamics: Heart rate / Central hemodynamics: Mean flow / Central hemodynamics: Peak flow / Central hemodynamics: Peripheral resistance (DSC) / Central hemodynamics: Pulse pressure / Central hemodynamics: Systolic pressure / Central stiffness parameters: Characteristic impedance (DSC) / Central stiffness parameters: First impedance modulus (DSC) / Central stiffness parameters: Proximal aortic compliance (CD) / End-systolic pressure / Forward wave, Pf / PbPf Amplitude ratio / Pressure at ti / Reflected wave arrival time, ti / Reflected wave, Pb / Systolic ejection period: mean ± SD; for PfPb Temporal overlap: % of systolic ejection period; for change in characteristic impedance / reduction in mean arterial pressure: change from baseline at 12 weeks; for change in characteristic impedance: only subjects with reduction in mean arterial pressure between 0 and −40 mmHg; for reduction in mean arterial pressure: only subjects with reduction in mean arterial pressure between 0 and −40 mmHg (68 omapatrilat, 59 enalapril); for changes in regional pulse wave velocities (carotid-femoral and carotid-radial) (FIG. 4): in vivo
Procedure: The following study was performed to compare treatment with the vasopeptidase inhibitor omapatrilat and the angiotensin converting enzyme inhibitor enalapril.
Study subjects. Male or female subjects age 18 years or older were eligible if they were in sinus rhythm and had systolic or mixed systolic-diastolic hypertension, defined as a seated systolic blood pressure ≧160 mmHg if newly diagnosed or ≧140 mmHg if currently treated and diastolic blood pressure ≦110 mmHG. Patients with known or suspected secondary forms of hypertension were excluded. Patients with a history of transient ischemic attacks within the prior 12 months or myocardial infarction or angina within the prior 6 months were excluded. All patients with heart failure, documented ejection fraction <45%, valvular heart disease or clinically significant peripheral vascular disease (bruit or diminished pulse in any of the brachial, radial, femoral or carotid arteries or blood pressure difference between upper extremities >6 mmHg) were excluded. Additional exclusion criteria included renal or renovascular disease, uncontrolled diabetes (glucose >200 mg/dl fasting or >220 mg/dL nonfasting), autoimmune disease, multiple drug allergies, bronchospastic disease requiring chronic medication. Laboratory exclusion criteria included hemoglobin <9 g/dl, platelet count <80,000/μl, white cell count <3000/μl, neutrophil count <1500/μl, serum potassium <3.5 or >5.2 mmol/L, alanine aminotransferase or aspartate aminotransferase greater than three times the upper limits of normal or serum creatinine >2.5 mg/dL. Failure to obtain a technically satisfactory baseline study, as determined by the core lab, was an exclusion criterion. If an initial baseline study had potentially remediable technical limitations, a repeat study was allowed within 2-9 days.
Treatment protocol: A single-blind placebo lead-in period of 1-2 weeks, during which the seated blood pressure was confirmed to be ≧160 mmHg and <200 mmHg and the diastolic pressure ≦110 mmHg, after withdrawl of antihypertensive medications, was followed by a double-blind active treatment period of 12 weeks. Baseline hemodynamic studies were performed at the end of the placebo lead-in period between 6:00 and 10:00 a.m. with the patient in a fasting state prior to taking morning medications and off all antihypertensive medications for at least 1 week. Patients were randomized within 2-9 days following an approved baseline study. Treatment was initiated with either 10 mg omapatrilat or 10 mg enalapril and was titrated at two and four weeks to doses of 40 then 80 mg omapatrilat or 20 then 40 mg enalapril. […] No concomitant antihypertensive medications were permitted during the study. A trough hemodynamic study, the primary endpoint of the trial was performed at the end of the active treatment period, 24 hours after the last prior dose of study medication, under identical conditions as the baseline study. Patients were then given one additional dose of study medication, which was followed 4 hours later by a final (peak) hemodynamic study. In order to focus on long-term effects of therapy, the primary endpoint of the study was prospectively defined as the trough change from baseline in pulsatile hemodynamics.
Hemodynamic data acquisition: Subjects were studied in the supine position after approximately 10 minutes of rest. Using a semi-automated computer-controlled device, auscultatory blood pressure was obtained 3-5 times at 2 minute intervals with a goal of obtaining 3 sequential readings that agreed to within 5 mmHg for systolic and diastolic. Arterial tonometry and ECG were obtained form the brachial, radial, femoral and carotid arteries using a custom transducer. Next, the patient was placed in the left lateral decubitus position and echocardiographic images of the left ventricular outflow tract were obtained from a parasternal long axis view. […]

[2] = system: patients who had left ventricular dysfunction and class II-IV congestive heart failure; conditions: cited from earlier work

| SMILES | shortening of the systolic ejection period ([1]; 12 weeks, trough) | Brachial pressures: Systolic pressure ([1]; 12 weeks) | PfPb Temporal overlap ([1]; 12 weeks, trough) | Augmentation index ([1]; 12 weeks, trough) | Brachial pressures: Diastolic pressure ([1]; 12 weeks, trough) | Brachial pressures: Mean pressure ([1]; 12 weeks, trough) | Brachial pressures: Pulse pressure ([1]; 12 weeks, trough) | Carotid-femoral PWV ([1]; 12 weeks, trough) | Carotid-radial PWV ([1]; 12 weeks, trough) | Central hemodynamics: Heart rate ([1]; 12 weeks, trough) | Central hemodynamics: Mean flow ([1]; 12 weeks, trough) | Central hemodynamics: Peak flow ([1]; 12 weeks, trough) | Central hemodynamics: Peripheral resistance (DSC) ([1]; 12 weeks, trough) | Central hemodynamics: Pulse pressure ([1]; 12 weeks, trough) | Central hemodynamics: Systolic pressure ([1]; 12 weeks, trough) | Central stiffness parameters: Characteristic impedance (DSC) ([1]; 12 weeks, trough) | Central stiffness parameters: First impedance modulus (DSC) ([1]; 12 weeks, trough) | Central stiffness parameters: Proximal aortic compliance (CD) ([1]; 12 weeks, trough) | End-systolic pressure ([1]; 12 weeks, trough) | Forward wave, Pf ([1]; 12 weeks, trough) | other results |
| --- | --- | --- | --- | --- | --- | --- | --- | --- | --- | --- | --- | --- | --- | --- | --- | --- | --- | --- | --- | --- | --- |
| O=C(N[C@H]1CCS[C@H]2CCC[C@@H](C(=O)O)N2C1=O)[C@H](S)Cc1ccccc1 (relative stereo) [Omapatrilat, [4S-[4α(R*),7α,10aβ]]-octahydro-4-[(2-mercapto-1-oxo-3-phenylpropyl)amino]-5-oxo-7H-pyrido[2,1-b][1,3]thiazepine-7-carboxylic acid] | not seen | 147 ± 20 mmHg | 64 ± 12 % | 19 ± 13 % | 76 ± 11 mmHg | 105 ± 13 mmHg | 71 ± 18 mmHg | 11.4 ± 3.1 m/s | 10.1 ± 1.4 m/s | 64 ± 9 min⁻¹ | 73 ± 16 mL/s | 312 ± 68 mL/s | 1986 ± 449 dyne × sec / cm^5 | 71 ± 22 mmHg | 147 ± 24 mmHg | 208 ± 70 dyne × sec / cm^5 | 323 ± 119 dyne × sec / cm^5 | 0.53 ± 0.26^† 10^−5 cm^4 / dyne | 114 ± 16 mmHg | 54 ± 16 mmHg | PbPf Amplitude ratio ([1]; 12 weeks, trough): 47 ± 7%; Pressure at ti ([1]; 12 weeks, trough): 132 ± 20 mmHg; Reflected wave arrival time, ti ([1]; 12 weeks, trough): 116 ± 36 ms; Reflected wave, Pb ([1]; 12 weeks, trough): 25 ± 7 mmHg; Systolic ejection period ([1]; 12 weeks, trough): 320 ± 26 ms; peripheral resistance ([1]; 12 weeks, trough, versus enalapril): reduced more; amplitude of the forward pressure wave ([1]; 12 weeks, unchanged peak flow): markedly reduced; change in characteristic impedance adjusted for baseline mean arterial pressure and change in mean arterial pressure ([1]; 12 weeks, versus enalapril, P<0.05): remained significant; change in characteristic impedance [1]: −37±58 dyne×sec/cm^5; reduction in mean arterial pressure [1]: −13.8±7.4 mmHg; changes in central pulse pressure (FIG. 2) ([1]; compared to enalapril): greater reduction in the central pulse pressure compared to enalapril; change in peripheral (brachial) systolic, diastolic, and pulse pressure (FIG. 1) ([1]; compared to enalapril, p<0.05): greater reductions in all measurements; changes in regional pulse wave velocities (carotid-femoral and carotid-radial) (FIG. 4) [1]: reduced regional pulse wave velocity; arrival time of the reflected wave (FIG. 4) ([1]; p<0.05): delayed reflected wave arrival time; characteristic impedance, a direct measure of aortic stiffness (FIG. 3) ([1]; without a change in aortic flow): significantly reduced; carotid-femoral pulse wave velocity [2]: favorable trend toward reduction |
| CCOC(=O)[C@H](CCc1ccccc1)N[C@@H](C)C(=O)N1CCC[C@H]1C(=O)O [Enalapril, reference compound] | shortening of the systolic ejection period | 155 ± 20 mmHg | 66 ± 8% | 21 ± 10 % | 81 ± 10 mmHg | 111 ± 12 mmHg | 74 ± 20 mmHg | 11.9 ± 3.7 m/s | 10.6 ± 1.8 m/s | 63 ± 8 min⁻¹ | 73 ± 16 mL/s | 314 ± 70 mL/s | 2122 ± 462 dyne × sec / cm^5 | 75 ± 23 mmHg | 156 ± 24 mmHg | 231 ± 94 dyne × sec / cm^5 | 352 ± 163 dyne × sec / cm^5 | 0.49 ± 0.28 10^−5 cm^4 / dyne | 120 ± 14 mmHg | 58 ± 17 mmHg | PbPf Amplitude ratio ([1]; 12 weeks, trough): 46 ± 8%; Pressure at ti ([1]; 12 weeks, trough): 139 ± 17 mmHg; Reflected wave arrival time, ti ([1]; 12 weeks, trough): 108 ± 25 ms; Reflected wave, Pb ([1]; 12 weeks, trough): 27 ± 8 mmHg; Systolic ejection period ([1]; 12 weeks, trough): 319 ± 27 ms; change in characteristic impedance [1]: −4±67 dyne×sec/cm^5; reduction in mean arterial pressure [1]: −12.0±8.1 mmHg; changes in regional pulse wave velocities (carotid-femoral and carotid-radial) (FIG. 4) [1]: reduced regional pulse wave velocity |
